Experimental data as given in patent publication US20240376097A1, “BCL-2 Inhibitor” (BeiGene Ltd., priority 2020, published 2024).
Where two headings read alike, the source gives them in different places.

Legend:
[1] = tested on: BCL-2 G101V knock-in cell line H96 (derive from RS4;11); test: Bcl 2-G101V Knock-In RS4;11 Cell Proliferation Assay; format: cell-based; details: Homo sapiens, RS4;11 Bcl-2 G101V knock-in clone H96, 48 hrs, CellTiter-GLO, read-out: Cellular proliferation assay (IC50, nM) RS4
Summary of the method: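 CellTiter-Glo luminescence after 48 h, 37 °C compound treatment (10 concentrations, maximum 1 μM or 10 μM) gave mean IC50 values. Cells were 50,000 per well of H96, a BCL2-G101V knock-in single clone derived from RS4;11 by Cas9 editing.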

[2] = biological target: recombinant human Bcl-2 D103Y protein (Homo sapiens (Human), UniProt P10415, D103Y); test: Bcl-2-D103Y Biochemical Assay (TR-FRET); format: binding; details: for IC50: TR-FRET, FITC labeled Bak peptide; for Ratio of Bcl-2 D103Y/Bcl-2 WT: ratio of IC50
Summary of the method: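 Compounds titrated against the Bcl-2 D103Y–ligand interaction; inhibition derived from the TR-FRET emission ratio 490 nm/520 nm after 337 nm excitation. Four-parameter logistic fitting gave IC50.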

[3] = tested on: recombinant human Bcl-2-G101V protein; test: Bcl-2-G101V TR-FRET Assay; format: binding; details: ratio of biochemical IC50 Bcl-2 G101V / Bcl-2 WT
Summary of the method: (§1)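 Percent inhibition of the Bcl-2-G101V–ligand interaction was computed from the 490 nm to 520 nm emission ratio after 337 nm excitation, over increasing compound concentrations; a four-parameter logistic fit gave IC50.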

[4] = biological target: recombinant human Bcl-2-G101V protein (Homo sapiens (Human), UniProt P10415, G101V); test: Bcl-2-G101V TR-FRET Assay; format: binding; details: Bcl-2 G101V mutant, TR-FRET; read-out: Biochemical assay (IC50, nM) Bcl-2 G101V
Summary of the method: as §1

[5] = tested on: RS4;11 (BCL-2 dependent acute lymphoblastic leukemia cell line); test: RS4;11 Cell Proliferation Assay; format: cell-based; details: Homo sapiens, RS4-11, RS4;11 cells, read-out: Cellular proliferation assay (IC50, nM) RS4
Summary of the method: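 Viability measured via CellTiter-Glo luminescence after a 48 h, 37 °C exposure to compounds (10 points, highest 1 μM). Seeding was 50,000 RS4;11 cells per well in 10% FBS RPMI-1640; IC50 given as mean.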

[6] = biological target: Recombinant human Bcl-2 protein (Homo sapiens (Human), UniProt P10415); test: Bcl-2 TR-FRET Assay; format: binding
Summary of the method: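 TR-FRET read (337 nm excitation, 520/490 nm emission) after 1 h with 0.5 nM FITC-labeled Bak peptide and Tb-cryptate anti-6His antibody. Bcl-2 at 0.05 nM had been pre-incubated 0.5 h with compound. IC50 fitted by four-parameter logistic equation.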

[7] = Bcl-2 wild type, TR-FRET, read-out: Biochemical assay (IC50, nM) Bcl-2 WT
[8] = wild type Bcl-2, unit inferred, read-out: Bcl-2 WT

Row | SMILES | IC50 [1] [nM] | IC50 [2] [pM] | Ratio of Bcl-2 D103Y/Bcl-2 WT [2] | Ratio of Bcl-2 G101V/WT [3] | IC50 [4] [nM] | IC50 [5] [nM] | IC50 [6, 7] [nM] | IC50 [6, 8] [nM]
1 | COc1cc(CN2CCN(C3CC4(C3)CN(c3ccc(C(=O)NS(=O)(=O)c5ccc(NC[C@H]6CC[C@](C)(O)CC6)c([N+](=O)[O-])c5)c(Oc5cnc6[nH]ccc6c5)c3)C4)[C@H](c3ccccc3C(C)C)C2)cc2cc(C)oc12 [Example 339, 2-((1H-pyrrolo[2,3-b]pyridin-5-yl)oxy)-N-((4-((((1r,4r)-4-hydroxy-4-methylcyclohexyl)methyl)amino)-3-nitrophenyl)sulfonyl)-4-(6-((R)-2-(2-isopropylphenyl)-4-((7-methoxy-2-methylbenzofuran-5-yl)methyl)piperazin-1-yl)-2-azaspiro[3.3]heptan-2-yl) benzamide] | 0.52 | 710 | 2.5 | 3.5 | 0.97 | 0.19 | 0.28 | 0.28
2 | COc1cc(CN2CCN(C3CC4(C3)CN(c3ccc(C(=O)NS(=O)(=O)c5ccc(NC[C@H]6CC[C@](C)(O)CC6)c([N+](=O)[O-])c5)c(Oc5cnc6[nH]ccc6c5)c3)C4)[C@H](c3ccccc3C(C)C)C2)ccc1OC1CC1 [Example 343, 2-((1H-pyrrolo[2,3-b]pyridin-5-yl)oxy)-4-(6-((R)-4-(4-cyclopropoxy-3-methoxybenzyl)-2-(2-isopropylphenyl)piperazin-1-yl)-2-azaspiro[3.3]heptan-2-yl)-N-((4-((((1r,4r)-4-hydroxy-4-methylcyclohexyl)methyl)amino)-3-nitrophenyl)sulfonyl)benzamide] | 0.25 | 90 | 0.8 | 2.7 | 0.3 | 0.11 | 0.11 | 0.11
3 | COc1cc(CN2CCN(C3CC4(C3)CN(c3ccc(C(=O)NS(=O)(=O)c5ccc(NC[C@H]6CC[C@](C)(O)CC6)c([N+](=O)[O-])c5)c(Oc5cnc6[nH]cc(F)c6c5)c3)C4)[C@H](c3ccccc3C(C)C)C2)ccc1C1COC1 [Example 345, 2-((3-fluoro-1H-pyrrolo[2,3-b]pyridin-5-yl)oxy)-N-((4-((((1r,4r)-4-hydroxy-4-methylcyclohexyl)methyl)amino)-3-nitrophenyl)sulfonyl)-4-(6-((R)-2-(2-isopropylphenyl)-4-(3-methoxy-4-(oxetan-3-yl)benzyl)piperazin-1-yl)-2-azaspiro[3.3]heptan-2-yl) benzamide] | 0.24 | 130 | 0.8 | 2.4 | 0.38 | 0.14 | 0.16 | 0.16
4 | COc1cc(CN2CCN(C3CC4(C3)CN(c3ccc(C(=O)NS(=O)(=O)c5ccc(NC[C@H]6CC[C@](C)(O)CC6)c([N+](=O)[O-])c5)c(Oc5cnc6[nH]cc(F)c6c5)c3)C4)[C@H](c3ccccc3C(C)C)C2)cc2c1OCCCC2 [Example 347, 2-((3-fluoro-1H-pyrrolo[2,3-b]pyridin-5-yl)oxy)-N-((4-((((1r,4r)-4-hydroxy-4-methylcyclohexyl)methyl)amino)-3-nitrophenyl)sulfonyl)-4-(6-((R)-2-(2-isopropylphenyl)-4-((9-methoxy-2,3,4,5-tetrahydrobenzo[b]oxepin-7-yl)methyl)piperazin-1-yl)-2-azaspiro[3.3]heptan-2-yl) benzamide] | 0.34 | 280 | 1.4 | 2.3 | 0.47 | 0.13 | 0.2 | 0.2
5 | COc1cc(CN2CCN(C3CC4(C3)CN(c3ccc(C(=O)NS(=O)(=O)c5ccc(NC[C@H]6CC[C@](C)(O)CC6)c([N+](=O)[O-])c5)c(Oc5cnc6[nH]cc(F)c6c5)c3)C4)[C@H](c3ccccc3C(C)C)C2)ccc1OC(C)C [Example 349, 2-((3-fluoro-1H-pyrrolo[2,3-b]pyridin-5-yl)oxy)-N-((4-((((1r,4r)-4-hydroxy-4-methylcyclohexyl)methyl)amino)-3-nitrophenyl)sulfonyl)-4-(6-((R)-4-(4-isopropoxy-3-methoxybenzyl)-2-(2-isopropylphenyl)piperazin-1-yl)-2-azaspiro[3.3]heptan-2-yl) benzamide] | 0.44 | 170 | 0.9 | 2.2 | 0.43 | 0.16 | 0.2 | 0.2
6 | COc1cc(CN2CCN(C3CC4(C3)CN(c3ccc(C(=O)NS(=O)(=O)c5ccc(NC[C@H]6CC[C@](C)(O)CC6)c([N+](=O)[O-])c5)c(Oc5cnc6[nH]cc(F)c6c5)c3)C4)[C@H](c3ccccc3C(C)C)C2)ccc1OC1CCC1 [Example 350, 4-(6-((R)-4-(4-cyclobutoxy-3-methoxybenzyl)-2-(2-isopropylphenyl)piperazin-1-yl)-2-azaspiro[3.3]heptan-2-yl)-2-((3-fluoro-1H-pyrrolo[2,3-b]pyridin-5-yl)oxy)-N-((4-((((1r,4r)-4-hydroxy-4-methylcyclohexyl)methyl)amino)-3-nitrophenyl)sulfonyl) benzamide] | 0.79 | 650 | 1.4 | 2.2 | 0.99 | 0.23 | 0.48 | 0.48
7 | COc1cc(CN2CCN(C3CC4(C3)CN(c3ccc(C(=O)NS(=O)(=O)c5ccc(NC[C@H]6CC[C@](C)(O)CC6)c([N+](=O)[O-])c5)c(Oc5cnc6[nH]cc(F)c6c5)c3)C4)[C@H](c3ccccc3C(C)C)C2)ccc1OC1COC1 [Example 351] | 0.13 | 70 | 1.7 | 2.6 | 0.11 | 0.09 | 0.042 | 0.04
8 | COc1ccc(C(=O)N2CCN(C3CC4(C3)CN(c3ccc(C(=O)NS(=O)(=O)c5ccc(NC[C@H]6CC[C@](C)(O)CC6)c([N+](=O)[O-])c5)c(Oc5cnc6[nH]cc(F)c6c5)c3)C4)[C@H](c3ccccc3C(C)C)C2)cc1 [Example 353] | 0.64 | 120 | 1.5 | 3.3 | 0.25 | 0.2 | 0.077 | 0.07
9 | COC1C2CC3CCC(CN4CCN(C5CC6(C5)CN(c5ccc(C(=O)NS(=O)(=O)c7ccc(NC[C@H]8CC[C@](C)(O)CC8)c([N+](=O)[O-])c7)c(Oc7cnc8[nH]cc(F)c8c7)c5)C6)[C@H](c5ccccc5C(C)C)C4)(C2)CC31 (stereo partly drawn) [Example 355, 2-((3-fluoro-1H-pyrrolo[2,3-b]pyridin-5-yl)oxy)-N-((4-((((1r,4r)-4-hydroxy-4-methylcyclohexyl)methyl)amino)-3-nitrophenyl)sulfonyl)-4-(6-((2R)-2-(2-isopropylphenyl)-4-((3-methoxyoctahydro-5H-2,5-methanoinden-5-yl)methyl)piperazin-1-yl)-2-azaspiro[3.3]heptan-2-yl)benzamide] | 2.8 | 1800 | 5.8 | 3.6 | 1.1 | 0.2 | 0.31 | 0.31
10 | COc1ccc(CN2CCN(C3CC4(C3)CN(c3ccc(C(=O)NS(=O)(=O)c5ccc(NCC67CC8CC(C6)CC(OC)(C8)C7)c([N+](=O)[O-])c5)c(Oc5cnc6[nH]cc(F)c6c5)c3)C4)[C@H](c3ccccc3C(C)C)C2)cc1 [Example 357, 2-((3-fluoro-1H-pyrrolo[2,3-b]pyridin-5-yl)oxy)-4-(6-((R)-2-(2-isopropylphenyl)-4-(4-methoxybenzyl)piperazin-1-yl)-2-azaspiro[3.3]heptan-2-yl)-N-((4-((((1r,5R,7S)-3-methoxyadamantan-1-yl)methyl)amino)-3-nitrophenyl)sulfonyl) benzamide] | 1 | 1000 | 1.8 | 2.5 | 1.4 | 0.19 | 0.57 | 0.57
